According to patent US20140107219A1, “LOCAL ANAESTHETIC” (VITA (EUROPE) LIMITED, priority 2011, published 2014):
pIC50: −log10 of the molar value. Where “and” joins values, the source holds several entries; their conditions need not be identical. Equal entries are not always repeated. Where two headings read alike, the source gives them in different places.

What was measured:
[1] = test system: peripheral nervous system of the rat; details: in-vivo; cited from earlier work
biceps muscle = test: In vivo muscle CAP (mCAP, EMG integral) after intramuscular injection, biceps muscle; details: 7.2 mg/kg intramuscular
[2] = in vivo; cited from earlier work
[3] = test system: isolated sciatic nerve of the rat; test: Evoked compound action potential (CAP) of the isolated rat sciatic nerve in a three-chamber bath (ex vivo): inhibition and recovery after washout; details: for IT0: 15 mM (1.7 mg/mL)
[4] = molecular target: T1, hNav1.6 sodium channels (SCN8A gene, expressed in CHO cells) (Homo sapiens, UniProt Q9UQD0); test: Automated patch clamp (PatchXpress 7000A), cloned hNav1.6 in CHO cells, tonic and phasic; format: cell-based; details: for inhibition at 730 µg/mL / inhibition at 1460 µg/mL / inhibition at 2190 µg/mL / inhibition at 2920 µg/mL: CHO
T1 construct: expressed in transfected cells; host or cells: CHO cells
Procedure: In this example, the in vitro effects of 2-heptanone on the following ion channels were evaluated at room temperature using the PatchXpress 7000A (Molecular Devices), an automatic parallel patch clamp system:
1. Cloned hNav1.2 sodium channels (SCN2A gene, expressed in CHO cells). 2. Cloned hNav1.6 sodium channels (SCN8A gene, expressed in CHO cells).
The effects of 2-heptanone were evaluated at 0.73, 1.46, 2.19, and 2.92 mg/ml with each concentration tested in two cells (n=2). The duration of exposure to each concentration of 2-heptanone was 5 minutes. Tables 2 to 5 show the individual results from each concentration followed by individual concentration-response curves. The positive controls (Table 6) confirm the sensitivity of the test systems to inhibition.
. Br. J. Pharmacol. 164, 719-730). […]

T1 sequence (Q9UQD0 whole entry): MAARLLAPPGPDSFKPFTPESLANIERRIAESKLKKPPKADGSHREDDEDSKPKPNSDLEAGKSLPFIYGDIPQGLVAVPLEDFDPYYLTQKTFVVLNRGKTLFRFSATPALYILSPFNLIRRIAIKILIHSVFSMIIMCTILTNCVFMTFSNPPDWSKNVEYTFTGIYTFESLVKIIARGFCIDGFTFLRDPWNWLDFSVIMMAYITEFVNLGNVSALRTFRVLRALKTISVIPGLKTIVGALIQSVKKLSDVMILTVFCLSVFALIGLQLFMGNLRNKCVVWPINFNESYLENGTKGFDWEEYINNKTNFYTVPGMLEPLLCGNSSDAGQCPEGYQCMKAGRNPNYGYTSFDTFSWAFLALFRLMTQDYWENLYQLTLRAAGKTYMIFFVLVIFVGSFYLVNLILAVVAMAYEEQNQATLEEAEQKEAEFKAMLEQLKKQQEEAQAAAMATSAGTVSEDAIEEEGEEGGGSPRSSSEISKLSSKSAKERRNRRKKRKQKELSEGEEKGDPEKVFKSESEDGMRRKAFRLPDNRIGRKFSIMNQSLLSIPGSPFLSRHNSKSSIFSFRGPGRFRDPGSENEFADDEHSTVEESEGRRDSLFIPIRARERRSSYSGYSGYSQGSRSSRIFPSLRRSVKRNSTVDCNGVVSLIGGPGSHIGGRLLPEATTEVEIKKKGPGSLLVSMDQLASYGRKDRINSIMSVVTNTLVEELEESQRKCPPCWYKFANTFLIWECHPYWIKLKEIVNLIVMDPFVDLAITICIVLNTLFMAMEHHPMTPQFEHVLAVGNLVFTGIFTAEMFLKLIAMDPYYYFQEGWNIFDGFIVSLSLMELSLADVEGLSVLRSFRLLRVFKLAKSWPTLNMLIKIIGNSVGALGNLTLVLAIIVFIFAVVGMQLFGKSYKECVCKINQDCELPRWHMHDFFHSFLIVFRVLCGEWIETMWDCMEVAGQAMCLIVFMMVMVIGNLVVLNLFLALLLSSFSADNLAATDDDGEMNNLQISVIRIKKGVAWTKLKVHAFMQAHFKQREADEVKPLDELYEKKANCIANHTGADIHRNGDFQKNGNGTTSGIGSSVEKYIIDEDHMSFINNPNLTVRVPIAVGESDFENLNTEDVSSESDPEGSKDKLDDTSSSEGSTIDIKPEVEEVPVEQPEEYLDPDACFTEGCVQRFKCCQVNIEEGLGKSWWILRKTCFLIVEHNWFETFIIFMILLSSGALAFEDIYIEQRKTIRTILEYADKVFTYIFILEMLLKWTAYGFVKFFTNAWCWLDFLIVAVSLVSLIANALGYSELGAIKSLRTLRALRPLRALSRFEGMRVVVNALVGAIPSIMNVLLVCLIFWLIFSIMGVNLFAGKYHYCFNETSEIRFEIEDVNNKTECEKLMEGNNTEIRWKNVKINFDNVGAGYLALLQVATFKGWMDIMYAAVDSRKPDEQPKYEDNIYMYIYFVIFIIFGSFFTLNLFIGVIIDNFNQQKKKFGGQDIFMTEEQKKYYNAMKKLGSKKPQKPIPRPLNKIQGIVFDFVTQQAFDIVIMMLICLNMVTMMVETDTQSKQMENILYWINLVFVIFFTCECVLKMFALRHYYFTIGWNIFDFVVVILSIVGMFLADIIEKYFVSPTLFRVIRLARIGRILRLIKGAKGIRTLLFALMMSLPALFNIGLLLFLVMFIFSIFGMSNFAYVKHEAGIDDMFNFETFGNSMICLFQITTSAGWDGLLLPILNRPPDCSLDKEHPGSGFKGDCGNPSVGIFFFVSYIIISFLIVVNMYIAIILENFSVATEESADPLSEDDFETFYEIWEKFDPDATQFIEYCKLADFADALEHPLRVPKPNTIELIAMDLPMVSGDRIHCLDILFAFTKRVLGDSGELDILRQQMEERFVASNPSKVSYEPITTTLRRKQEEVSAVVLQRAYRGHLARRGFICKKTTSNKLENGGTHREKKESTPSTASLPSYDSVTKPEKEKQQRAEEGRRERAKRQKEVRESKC

CCCCCC(C)=O [2-heptanone]
neurotoxic effects on the peripheral nervous system [1]: no neurotoxic effects | IT50 of mCAPs (biceps muscle): 9.13 ± 0.73 s and 9.13 s | acute LD50 [2]: 1760 mg/kg | IT100 / IT0 ([3]; 1.41 mg/mL): 517.5 ± 25.62 s | IT100 / IT0 ([3]; 1.41 mg/mL, listed as 2-Heptanone): 517.5 ± 25.62 s | IT100 / IT0 ([3]; 2.28 mg/mL (20 mM)): 358.8 ± 18.07 s | IT100 / IT0 ([3]; 2.28 mg/mL (20 mM), listed as 2-Heptanone): 358.8 ± 18.07 s | IT50 (time to inhibit CAP amplitude to 50% of control) ([3]; 10 mg/mL): 22.3 ± 1.1 s | CAP decreased to (% of control) ([3]; 10 mg/mL, within 70 seconds of treatment): 24% | IT50 (time to inhibit CAP amplitude to 50% of control) ([3]; 10 mg/mL, listed as 2-Heptanone): 22.3 ± 1.1 s | IT0 ([3]; stagnant saline, n=5): 5 to 9 min | IT0 ([3]; stirred saline, individual nerves): 5 min and 10 min | recovery of the CAP after washout, % of control ([3]; after 1.41 mg/mL): above 87.5% | IC50 (concentration required to inhibit the CAP to 50% of control) ([3]; estimated from time-response curves, GraphPad Prism 5): 469 ± 2 µg/mL | neurotoxic effect on nerve fibres ([3]; ex vivo, within the limits of 24 h): no neurotoxic effect | fold slower than lidocaine ([3]; whole nerve preparation): 1.54 fold | times less active than lidocaine, hNav1.6 phasic [4]: 11.7 times | times less active than lidocaine, hNav1.6 tonic [4]: 4.6 times | Individual Data Points (% Inhibition), Nav1.6 phasic ([4]; 0.73 mg/ml, single cells): 81.1% | Individual Data Points (% Inhibition), Nav1.6 tonic ([4]; 0.73 mg/ml, single cells): 52.6% | Individual Data Points (% Inhibition), Nav1.6 phasic ([4]; 1.46 mg/ml, single cells): 99.9% | Individual Data Points (% Inhibition), Nav1.6 tonic ([4]; 1.46 mg/ml, single cells): 70.4% | Individual Data Points (% Inhibition), Nav1.6 phasic ([4]; 2.19 mg/ml, single cells): 101.0% | Individual Data Points (% Inhibition), Nav1.6 tonic ([4]; 2.19 mg/ml, single cells): 100.1% | Individual Data Points (% Inhibition), Nav1.6 phasic ([4]; 2.92 mg/ml, single cells): 100.7% | Individual Data Points (% Inhibition), Nav1.6 tonic ([4]; 2.92 mg/ml, single cells): 99.9% | inhibition at 730 µg/mL ([4]; 0.73 mg/ml, single cells, read-out: Individual Data Points (% Inhibition), Nav1.6 phasic): 94% | inhibition at 730 µg/mL ([4]; 0.73 mg/ml, single cells, read-out: Individual Data Points (% Inhibition), Nav1.6 tonic): 40.9% | inhibition at 730 µg/mL ([4]; 0.73 mg/ml, read-out: Mean % Inhibition, Nav1.6 phasic): 87.6% | inhibition at 730 µg/mL ([4]; 0.73 mg/ml, read-out: Mean % Nav1.6 Tonic Inhibition): 46.8% | inhibition at 1460 µg/mL ([4]; 1.46 mg/ml, single cells, read-out: Individual Data Points (% Inhibition), Nav1.6 phasic): 102% | inhibition at 1460 µg/mL ([4]; 1.46 mg/ml, single cells, read-out: Individual Data Points (% Inhibition), Nav1.6 tonic): 70.8% | inhibition at 1460 µg/mL ([4]; 1.46 mg/ml, read-out: Mean % Inhibition, Nav1.6 phasic): 101% | inhibition at 1460 µg/mL ([4]; 1.46 mg/ml, read-out: Mean % Nav1.6 Tonic Inhibition): 70.6% | inhibition at 2190 µg/mL ([4]; 2.19 mg/ml, single cells, read-out: Individual Data Points (% Inhibition), Nav1.6 phasic): 102% | inhibition at 2190 µg/mL ([4]; 2.19 mg/ml, single cells, read-out: Individual Data Points (% Inhibition), Nav1.6 tonic): 96.5% | inhibition at 2190 µg/mL ([4]; 2.19 mg/ml, read-out: Mean % Inhibition, Nav1.6 phasic): 101% | inhibition at 2190 µg/mL ([4]; 2.19 mg/ml, read-out: Mean % Nav1.6 Tonic Inhibition): 98.3% | inhibition at 2920 µg/mL ([4]; 2.92 mg/ml, single cells, read-out: Individual Data Points (% Inhibition), Nav1.6 phasic): 101% | inhibition at 2920 µg/mL ([4]; 2.92 mg/ml, single cells, read-out: Individual Data Points (% Inhibition), Nav1.6 tonic): 96.1% | inhibition at 2920 µg/mL ([4]; 2.92 mg/ml, read-out: Mean % Inhibition, Nav1.6 phasic): 101% | inhibition at 2920 µg/mL ([4]; 2.92 mg/ml, read-out: Mean % Nav1.6 Tonic Inhibition): 98% | pIC50 ([4]; Example 7, n=2, read-out: Nav1.6 phasic IC50): > 2.19
